Assay results from the NIST ThermoML archive (doi:10.1016/j.tca.2008.05.004).
“And” between values parts separate entries of the source, which are not always exact repeats. Identical values can stand only once.

Assay: molar heat capacity at constant pressure
Details: 101.33 kPa, Crystal, Small (less than 1 g) adiabatic calorimetry

O=P([O-])([O-])[O-].[La+3] [lanthanum orthophosphate]
Details	molar heat capacity at constant pressure
2 K	0.00122 J/K/mol
4 K	0.01153 J/K/mol
6 K	0.03674 J/K/mol
8 K	0.08437 J/K/mol
10 K	0.1669 J/K/mol
12 K	0.2994 J/K/mol
14 K	0.4971 J/K/mol
16 K	0.7738 J/K/mol
18 K	1.141 J/K/mol
20 K	1.605 J/K/mol
25 K	3.201 J/K/mol
25.03 K	3.418 J/K/mol
25.8 K	3.691 J/K/mol
26.57 K	3.997 J/K/mol
27.34 K	4.269 J/K/mol
28.12 K	4.62 J/K/mol
28.89 K	4.94 J/K/mol
29.68 K	5.294 J/K/mol
30 K	5.306 J/K/mol
30.46 K	5.695 J/K/mol
31.24 K	6.098 J/K/mol
32.03 K	6.511 J/K/mol
32.86 K	6.925 J/K/mol
33.65 K	7.346 J/K/mol
34.44 K	7.659 J/K/mol
35 K	7.89 J/K/mol
35.24 K	8.049 J/K/mol
36.04 K	8.576 J/K/mol
36.84 K	9.023 J/K/mol
37.64 K	9.523 J/K/mol
38.44 K	9.994 J/K/mol
39.25 K	10.48 J/K/mol
40 K	10.82 J/K/mol
40.05 K	10.95 J/K/mol
40.86 K	11.44 J/K/mol
41.67 K	11.92 J/K/mol
42.48 K	12.4 J/K/mol
43.29 K	12.88 J/K/mol
44.1 K	13.34 J/K/mol
44.92 K	13.87 J/K/mol
45 K	13.97 J/K/mol
45.76 K	14.39 J/K/mol
48.2 K	16.03 J/K/mol
49.02 K	16.52 J/K/mol
49.84 K	17.11 J/K/mol
50 K	17.23 J/K/mol
50.65 K	17.64 J/K/mol
51.47 K	18.19 J/K/mol
52.29 K	18.72 J/K/mol
53.11 K	19.27 J/K/mol
53.93 K	19.79 J/K/mol
54.75 K	20.27 J/K/mol
55.57 K	20.78 J/K/mol
56.4 K	21.36 J/K/mol
57.22 K	21.86 J/K/mol
58.04 K	22.41 J/K/mol
58.89 K	22.97 J/K/mol
59.72 K	23.49 J/K/mol
60 K	23.73 J/K/mol
60.54 K	24.01 J/K/mol
61.37 K	24.55 J/K/mol
62.2 K	25.1 J/K/mol
63.03 K	25.6 J/K/mol
63.86 K	26.14 J/K/mol
64.69 K	26.66 J/K/mol
65.52 K	27.24 J/K/mol
66.35 K	27.76 J/K/mol
67.19 K	28.22 J/K/mol
68.02 K	28.62 J/K/mol
68.86 K	29.07 J/K/mol
69.7 K	29.48 J/K/mol
70 K	29.93 J/K/mol
70.93 K	30.26 J/K/mol
72.58 K	31.21 J/K/mol
73.58 K	31.56 J/K/mol
74.82 K	32.17 J/K/mol
76.07 K	33.31 J/K/mol
77.32 K	33.78 J/K/mol
78.55 K	34.74 J/K/mol
80 K	35.68 J/K/mol
80.58 K	36.06 J/K/mol
82.23 K	36.9 J/K/mol
83.88 K	37.58 J/K/mol
85.53 K	38.39 J/K/mol
87.18 K	39.57 J/K/mol
88.83 K	40.58 J/K/mol
90 K	40.96 J/K/mol
90.48 K	41.33 J/K/mol
92.13 K	42.17 J/K/mol
93.78 K	42.97 J/K/mol
95.43 K	43.79 J/K/mol
97.08 K	44.53 J/K/mol
100 K	45.82 J/K/mol
101.86 K	46.91 J/K/mol
102.42 K	47.17 J/K/mol
104.27 K	47.95 J/K/mol
104.88 K	48.25 J/K/mol
106.71 K	49.05 J/K/mol
107.34 K	49.42 J/K/mol
109.16 K	50.14 J/K/mol
109.8 K	50.46 J/K/mol
110 K	50.3 J/K/mol
111.6 K	51.16 J/K/mol
112.25 K	51.55 J/K/mol
114.04 K	52.08 J/K/mol
114.7 K	52.52 J/K/mol
116.47 K	53.12 J/K/mol
117.16 K	53.55 J/K/mol
119.61 K	54.49 J/K/mol
120 K	54.48 J/K/mol
122.06 K	55.51 J/K/mol
124.51 K	56.3 J/K/mol
126.96 K	57.27 J/K/mol
129.4 K	58.21 J/K/mol
130 K	58.4 J/K/mol
131.85 K	59.09 J/K/mol
134.29 K	59.99 J/K/mol
136.73 K	60.84 J/K/mol
139.17 K	61.67 J/K/mol
140 K	62.1 J/K/mol
141.61 K	62.6 J/K/mol
144.05 K	63.49 J/K/mol
146.46 K	64.31 J/K/mol
148.9 K	65.12 J/K/mol
150 K	65.6 J/K/mol
151.33 K	65.92 J/K/mol
153.76 K	66.8 J/K/mol
156.18 K	67.59 J/K/mol
158.61 K	68.21 J/K/mol
160 K	68.93 J/K/mol
161.03 K	69.15 J/K/mol
163.45 K	69.96 J/K/mol
165.87 K	70.75 J/K/mol
168.29 K	71.39 J/K/mol
170 K	72.09 J/K/mol
170.7 K	72.25 J/K/mol
173.11 K	73.03 J/K/mol
175.52 K	73.72 J/K/mol
177.92 K	74.42 J/K/mol
180 K	75.12 J/K/mol
180.31 K	75.07 J/K/mol
182.7 K	75.83 J/K/mol
185.04 K	76.53 J/K/mol
187.44 K	77.24 J/K/mol
189.83 K	77.9 J/K/mol
190 K	78.01 J/K/mol
192.21 K	78.51 J/K/mol
199.36 K	80.46 J/K/mol
200 K	80.78 J/K/mol
202.14 K	81.27 J/K/mol
205.3 K	82.08 J/K/mol
208.46 K	82.89 J/K/mol
210 K	83.44 J/K/mol
211.61 K	83.64 J/K/mol
214.75 K	84.46 J/K/mol
217.89 K	85.24 J/K/mol
220 K	85.98 J/K/mol
220.27 K	86.55 J/K/mol
223.51 K	87.38 J/K/mol
226.73 K	88.15 J/K/mol
229.94 K	88.77 J/K/mol
230 K	88.41 J/K/mol
233.13 K	89.33 J/K/mol
236.34 K	89.95 J/K/mol
239.53 K	90.87 J/K/mol
240 K	90.75 J/K/mol
242.69 K	91.56 J/K/mol
245.83 K	92.05 J/K/mol
248.99 K	92.61 J/K/mol
250 K	92.99 J/K/mol
252.14 K	93.33 J/K/mol
255.28 K	94.2 J/K/mol
258.37 K	94.93 J/K/mol
260 K	95.13 J/K/mol
261.31 K	95.4 J/K/mol
264.37 K	95.93 J/K/mol
267.41 K	96.5 J/K/mol
270 K	97.19 J/K/mol
270.48 K	97.19 J/K/mol
273.52 K	97.78 J/K/mol
276.54 K	98.45 J/K/mol
279.55 K	99 J/K/mol
280 K	99.17 J/K/mol
282.53 K	99.55 J/K/mol
285.49 K	100.2 J/K/mol
288.42 K	100.6 J/K/mol
290 K	101.1 J/K/mol
291.33 K	101.2 J/K/mol
294.21 K	101.7 J/K/mol
297.05 K	102.3 J/K/mol
299.79 K	102.8 J/K/mol
300 K	102.9 J/K/mol
302.76 K	103.4 J/K/mol
306.59 K	104.1 J/K/mol
310.93 K	105 J/K/mol
315.5 K	105.8 J/K/mol
320 K	106.5 J/K/mol and 106.3 J/K/mol
324.45 K	106.9 J/K/mol
340 K	109.4 J/K/mol
360 K	112.3 J/K/mol
373 K	113.9 J/K/mol
400 K	117.1 J/K/mol
450 K	122 J/K/mol
500 K	126 J/K/mol
550 K	129.4 J/K/mol
600 K	132.4 J/K/mol
650 K	135.2 J/K/mol
700 K	137.7 J/K/mol
750 K	140.1 J/K/mol
800 K	142.4 J/K/mol
850 K	144.6 J/K/mol
900 K	146.7 J/K/mol
950 K	148.7 J/K/mol
1000 K	150.8 J/K/mol
1050 K	152.8 J/K/mol
1100 K	154.7 J/K/mol
1150 K	156.6 J/K/mol
1200 K	158.5 J/K/mol
1250 K	160.4 J/K/mol
1300 K	162.3 J/K/mol
1350 K	164.2 J/K/mol
1400 K	166 J/K/mol
1450 K	167.9 J/K/mol
1500 K	169.7 J/K/mol
1550 K	171.5 J/K/mol
1600 K	173.4 J/K/mol
